{"source": "patent EP2042188A1", "about": "“PHARMACEUTICAL COMPOSITION FOR TREATING OR PREVENTING HCV INFECTION” (priority 2006, dated 2007)", "key": {"[1]": {"test_system": "de novo sphingolipid biosynthesis in FLR3-1 cells", "experiment": "De novo sphingolipid biosynthesis monitored by [14C]-serine incorporation and TLC", "assay_type": "cell-based", "settings": "TLC", "protocol": "To investigate the correlation between sphingolipid metabolites and HCV replication, the present inventors monitored the de novo sphingolipid biosynthesis in FLR3-1 cells in the presence of myriocin.\nFirst, FLR3-1 cells were incubated with [^14C]-serine (0.5 µCi/ml) in Opti-MEM (Invitrogen) for two hours. After the cells were lysed in 0.1% SDS, total lipid was extracted using chloroform/methanol (1:2 (v/v)). The extract was spotted onto a Silica gel 60 thin layer chromatography (TLC) plate (Merck, Darmstadt, Germany), and chromatographed using methyl acetate/ 1-propanol/ chloroform/methanol/ 0.25% KCl (25:25:25:10:9 (v/v)). Radioactive spots were detected using BAS 2000 (Fujifilm, Kanagawa, Japan)."}, "[2]": {"experiment": "Serum human albumin level (Alb-II kit) in HCV 1b infected chimeric mice", "assay_type": "in vivo, chimeric mice having humanized liver", "settings": "serum of HCV 1b infected chimeric mice", "protocol": "The present inventors monitored the human albumin (h-Alb) level at the same time. The human albumin level was determined using 2 µl of serum and the Alb-II kit (Eiken Chemical, Tokyo, Japan) according to the manufacturer's instructions."}, "HCV genotype 1b (HCR6)": {"test_system": "HCV genotype 1b (HCR6)", "experiment": "Serum HCV RNA (real-time PCR) in chimeric mice with humanized liver infected with HCV genotype 1b, myriocin and/or PEG-IFN", "assay_type": "in vivo, chimeric mice having humanized liver", "settings": "after eight days, myriocin 1 mg/kg (reduced to 0.5 mg/kg on weight loss)", "protocol": "The inhibitory activity of myriocin was examined using chimeric mice having humanized liver infected with HCR6 (genotype 1b). The chimeric mice used were purchased from PhoenixBio Co. (Hiroshima, Japan).\nSpecifically, according to Table 2, myriocin and/or PEG-IFN (Chugai, Tokyo, Japan) were administered intraperitoneally or subcutaneously into mice infected with HCV genotype 1b (HCR6; accession number AY045702) and blood was collected. Table 2: Administration schedule for chimeric mice infected with HCV genotype 1b\nIn Table 2, the symbols B, I, and M indicate that each step was conducted as needed and the administration of agents was started on day 0. PEG-IFN was injected at a dose of 30 µg/kg. The dose of myriocin injection was varied depending on the mouse weight. The administration was started at 1 mg/kg (M). When the weight was reduced by 10%, the dose was reduced to 0.5 mg/kg (M1/2). The administration was discontinued when the weight was reduced by 20%.\nNext, total RNAs were purified using AGPC method from 1 µl of sera or hepatic tissues collected from the chimeric mice. HCV RNA was quantified by real-time PCR using a method known to those skilled in the art (Takeuchi, T. et al., Gastroenterology, 116, 636-642 (1999))."}, "[3]": {"test_system": "FLR3-1 HCV subgenomic replicon cells (genotype 1b; Con-1)", "experiment": "Luciferase assay of HCV replication in HCV subgenomic replicon cells", "assay_type": "cell-based", "settings": "Hepatitis C virus; for IC50: 72 h, FLR3-1 cells, read-out: IC50 of myriocin", "protocol": "First, myriocin (Sigma, St. Louis, MO, USA) was added at a final concentration of 0.2, 1.0, 3.9, 15.6, or 62.5 nM to a growth medium for FLR3-1 HCV subgenomic replicon cells (genotype 1b; Con-1; Sakamoto, H. et al., Nat Chem Biol, 1, 333-337 (2005)). After 72 hours of incubation, the present inventors carried out luciferase assay using the Bright-Glo luciferase assay kit (Promega, Madison, WI, USA).\nFLR3-1 cells were incubated with 1 or 2.5 µM of a sphingolipid intermediate (dihydrosphingosine, sphingosine, or sphingosine-1-phosphate), and then serial dilutions of myriocin were added thereto. After 72 hours, IC50 in each combination was determined by luciferase assay."}, "NS3 protein": {"test_system": "NS3 protein", "experiment": "Immunoblotting and immunofluorescent staining of NS3 protein in HCV replicon cells", "assay_type": "cell-based"}, "HCV genotype, 1a (HCG9)": {"test_system": "HCV genotype, 1a (HCG9)", "experiment": "HCV RNA and core protein in serum and liver of chimeric mice infected with HCV genotype 1a", "assay_type": "in vivo", "settings": "2 mg/kg of myriocin every day for six days", "protocol": "The serum RNA level in these mice reached about 1x10^8 copies/ml, 10 times higher than that of HCV 1b (HCR6) (Fig. 5A). Therefore, it was assumed that the HCV core protein in the hepatocytes could be readily detected by immunofluorescent staining. The present inventors administered 2 mg/kg of myriocin to 1a-4 chimeric mice every day for six days and then excised the livers. For comparison, livers were also excised from non-treated mice (1a-1), non-infected mice (1a-2), and PEG-IFN-treated mice (1a-3) in the same way. The livers were homogenized in RIPA, and 100 µg of the total protein was used for detection of the core protein using the Ortho HCV core protein ELISA kit (Eiken Chemical).\nNext, the liver tissues of the chimeric mice were examined by immunofluorescent staining. Liver sections from the 1a-1 and 1a-4 mice were probed using a biotinylated anti-HCV core protein monoclonal antibody and anti-human hepatocyte monoclonal antibody (Dako, Glostrup, Denmark) as primary antibodies. Then, the sections were probed with streptavidin-Alexa 488 (Invitrogen) and anti-mouse IgG-Alexa-546 (Invitrogen). Furthermore, nuclei were stained with DAPI.\nThe effect of myriocin treatment on the expression of HCV RNA and core protein in the livers of the chimeric mice was confirmed by the method described above."}, "FLR3-1 cells": {"test_system": "FLR3-1 cells", "experiment": "Cell viability (Tetra Color One kit)", "assay_type": "cell-based", "settings": "72 hours of incubation, 0.2 to 62.5 nM", "protocol": "Furthermore, myriocin was added to FLR3-1 cells, and after 72 hours of incubation, the cell viability was determined using Tetra Color One kit (Seikagakukogyo, Tokyo, Japan) according to the manufacturer's instructions."}}, "note": "Like-named read-outs stand apart in the source and are kept apart here."}
{"smiles": "CCCCCCC(=O)CCCCCC/C=C/C[C@@H](O)[C@H](O)[C@@](N)(CO)C(=O)O", "note": "[myriocin, Myriocin]", "values": [{"measurement": "production of both ceramide and sphingomyelin", "setting": "[1]", "result": "inhibited in a dose dependent manner"}, {"measurement": "production of phosphatidylethanolamine and phosphatidylserine", "setting": "[1]", "result": "not affected"}, {"measurement": "human albumin level", "setting": "[2]", "result": "without affecting h-Alb"}, {"measurement": "reduction of serum level of HCV RNA", "setting": "HCV genotype 1b (HCR6)", "result": "10 to 100", "unit": "times"}, {"measurement": "serum level of HCV RNA", "setting": "HCV genotype 1b (HCR6); before treatment 3 x 10^6 to 1 x 10^7 copies/ml", "result": "6 x 10^5 to 1 x 10^4 copies/ml"}, {"measurement": "IC50", "setting": "[3]; Agent added: Dihydrosphingosine 1.0 µM", "result": 77.7, "unit": "nM"}, {"measurement": "IC50", "setting": "[3]; Agent added: Dihydrosphingosine 2.5 µM", "result": "> 1000", "unit": "nM"}, {"measurement": "IC50", "setting": "[3]; Agent added: Sphingosine 1.0 µM", "result": 22.4, "unit": "nM"}, {"measurement": "IC50", "setting": "[3]; Agent added: Sphingosine 2.5 µM", "result": "> 1000", "unit": "nM"}, {"measurement": "IC50", "setting": "[3]; Agent added: Sphingosine-1-phosphate 1.0 µM", "result": 14.7, "unit": "nM"}, {"measurement": "IC50", "setting": "[3]; Agent added: Sphingosine-1-phosphate 2.5 µM", "result": "> 1000", "unit": "nM"}, {"measurement": "IC50", "setting": "[3]; No agent added, luciferase assay", "result": "~5.8", "unit": "nM"}, {"measurement": "inhibition at 0.0625 µM", "setting": "[3]; in the presence of 62.5 nM myriocin, 72 hours, read-out: maximum inhibitory rate (luciferase activity)", "result": "~80", "unit": "%"}, {"measurement": "NS3 protein", "setting": "NS3 protein", "result": "reduced"}, {"measurement": "HCV 1a RNA and core protein in the liver", "setting": "HCV genotype, 1a (HCG9); 1a-4 mice", "result": "also reduced"}, {"measurement": "serum level of HCV RNA", "setting": "HCV genotype, 1a (HCG9); 1a-4 mice, non-treated about 1x10^8 copies/ml", "result": "1 x 10^5 copies/ml"}, {"measurement": "core protein in human hepatocytes (immunofluorescent staining)", "setting": "HCV genotype, 1a (HCG9); liver sections of 1a-4 mice", "result": "disappeared"}, {"measurement": "cell viability", "setting": "FLR3-1 cells", "result": "without affecting the cell viability"}]}
